From PMC10419174, “WR1065 conjugated to thiol-PEG polymers as novel anticancer prodrugs: broad spectrum efficacy, synergism, and drug resistance reversal” (Frontiers in Oncology, 2023)
Values joined by “and” are separate entries in the source; they are usually repeats but may differ in a detail not shown here. Equal entries are not always repeated. Marks after values point to notes of the source that are not given here.

How the values were obtained:
Assay in all cases: cells
Prostate PC3 cells = test system: Prostate PC3 cells
Procedure: (§1) The percentage of growth inhibition was calculated as follows: […]

Ovary TOV21G cells = details: for Fold increase in efficacy: drug alone ÷ drug in 4SP65-DDP combination
Procedure: as §1

Ovary SKOV3 cells = details: for Fold increase in efficacy: drug alone ÷ drug in 4SP65-DDP combination
Procedure: as §1

A549 NSCLC cells = test system: A549 NSCLC cells
Procedure: as §1

Prostate LNCaP cells = test system: Prostate LNCaP cells
Procedure: as §1

[1] = 48-h treatment, amifostine ND = not definable up to 500 µM
[2] = drug alone, 48 h, 4SP65/cisplatin study
[3] = drug alone, 48 h, 4SP65/cisplatin study, ND = not definable, highest concentration in parentheses
[4] = drug alone, 48 h, 4SP65/gefitinib study
[5] = drug alone, 48 h, 4SP65/gefitinib study, ND = not definable, highest concentration in parentheses

Substance: 4-star-PEG-S-S-WR1065 [4SP65]
- CC50 (Prostate PC3 cells): 4.5 ± 0.6 µM
- GI50 (Prostate PC3 cells; [1]): 0.7 ± 0.2 µM
- IC50 (Prostate PC3 cells; [1]): 2 ± 0.3 µM
- LC99 (Prostate PC3 cells; [1]): 5.8 ± 0.8 µM
- TGI (Prostate PC3 cells; [1]): 2.1 ± 0.5 µM and 2.1 µM
- Dose reduction value 1LP65 ÷ 4SP65 (Prostate PC3 cells; at GI50): 25 fold
- Dose reduction value AMF ÷ 4SP65 (Prostate PC3 cells; at GI50): 58 fold
- Dose reduction value 1LP65 ÷ 4SP65 (Prostate PC3 cells; at IC50): 19 fold
- Dose reduction value AMF ÷ 4SP65 (Prostate PC3 cells; at IC50): 52 fold
- Dose reduction value 1LP65 ÷ 4SP65 (Prostate PC3 cells; at LC50): 13 fold
- Dose reduction value 1LP65 ÷ 4SP65 (Prostate PC3 cells; at LC99): 15 fold
- Dose reduction value 1LP65 ÷ 4SP65 (Prostate PC3 cells; at TGI): 19 fold
- Dose reduction value AMF ÷ 4SP65 (Prostate PC3 cells; at TGI): 143 fold
- CC50 (Ovary TOV21G cells): 2.7 µM
- gains in total growth inhibition and cytolytic effects, range (Ovary TOV21G cells; 4SP65-cisplatin combined): 2.4- to 3.2 fold
- GI50 (Ovary TOV21G cells; [1]): 0.9 ± 0.4 µM
- IC50 (Ovary TOV21G cells; [1]): 1.2 ± 0.3 µM
- TGI (Ovary TOV21G cells; [1]): 2.0 ± 0.4 µM
- LC99, drug in combination (CMB) (Ovary TOV21G cells; amount of each drug in combination, ratio 14% 4SP65:86% DDP, 48 h): 0.95 µM
- Dose reduction value 1LP65 ÷ 4SP65 (Ovary TOV21G cells; at GI50): 24 fold
- Dose reduction value AMF ÷ 4SP65 (Ovary TOV21G cells; at GI50): 52 fold
- Dose reduction value 1LP65 ÷ 4SP65 (Ovary TOV21G cells; at IC50): 22 fold
- Dose reduction value AMF ÷ 4SP65 (Ovary TOV21G cells; at IC50): 41 fold
- Dose reduction value 1LP65 ÷ 4SP65 (Ovary TOV21G cells; at LC50): 19 fold
- Dose reduction value 1LP65 ÷ 4SP65 (Ovary TOV21G cells; at LC99): 31 fold
- Dose reduction value 1LP65 ÷ 4SP65 (Ovary TOV21G cells; at TGI): 27 fold
- Fold increase in efficacy (Ovary TOV21G cells; at GI50): 2.3 (NS) fold
- Fold increase in efficacy (Ovary TOV21G cells; at IC50): 1.9 (NS) fold
- Fold increase in efficacy (Ovary TOV21G cells; at LC50): 3.0*** fold
- Fold increase in efficacy (Ovary TOV21G cells; at LC99): 3.2*** fold
- Fold increase in efficacy (Ovary TOV21G cells; at TGI): 2.4* fold
- GI50 (Ovary TOV21G cells; [2]): 0.93 ± 0.37 µM
- IC50 (Ovary TOV21G cells; [2]): 1.2 ± 0.3 µM
- LC99 (Ovary TOV21G cells; [2]): 3.0 µM and 3.0 ± 0.2 µM
- TGI (Ovary TOV21G cells; [2]): 2.0 ± 0.4 µM
- GI50 (Ovary SKOV3 cells; [1]): 4 ± 0.8 µM
- IC50 (Ovary SKOV3 cells; [1]): 5.1 ± 0.9 µM
- LC99 (Ovary SKOV3 cells; [1]): 10.5 ± 1.5 µM
- TGI (Ovary SKOV3 cells; [1]): 6.8 ± 0.9 µM and 6.8 µM
- fold more effective as a cytostatic agent than PRIMA-1 or APR-246 (Ovary SKOV3 cells; TP53-null SKOV3 cells): 3.3- to 16 fold
- Dose reduction value 1LP65 ÷ 4SP65 (Ovary SKOV3 cells; at GI50): 10 fold
- Dose reduction value AMF ÷ 4SP65 (Ovary SKOV3 cells; at GI50): 20 fold
- Dose reduction value 1LP65 ÷ 4SP65 (Ovary SKOV3 cells; at IC50): 8.9 fold
- Dose reduction value AMF ÷ 4SP65 (Ovary SKOV3 cells; at IC50): 58 fold
- Dose reduction value 1LP65 ÷ 4SP65 (Ovary SKOV3 cells; at LC50): 7.5 fold
- Dose reduction value 1LP65 ÷ 4SP65 (Ovary SKOV3 cells; at LC99): 9.4 fold
- Dose reduction value 1LP65 ÷ 4SP65 (Ovary SKOV3 cells; at TGI): 7.4 fold
- Fold increase in efficacy (Ovary SKOV3 cells; at GI50): 1.5** fold
- Fold increase in efficacy (Ovary SKOV3 cells; at IC50): 1.8** fold
- Fold increase in efficacy (Ovary SKOV3 cells; at LC50, GoE = gain of effect): 1.3** fold
- Fold increase in efficacy (Ovary SKOV3 cells; at LC99, GoE = gain of effect): 1.3* fold
- Fold increase in efficacy (Ovary SKOV3 cells; at TGI, GoE = gain of effect): 1.5* fold
- GI50 (Ovary SKOV3 cells; [2]): 4.3 ± 1 µM
- IC50 (Ovary SKOV3 cells; [2]): 5.2 ± 1 µM
- LC99 (Ovary SKOV3 cells; [3]): 10.0 ± 0.8 µM
- TGI (Ovary SKOV3 cells; [3]): 7.3 ± 0.8 µM
- gains of cytostatic and cytolytic activities, range (A549 NSCLC cells; 4SP65-cisplatin combined): 1.9- to 2.4 fold
- GI50 (A549 NSCLC cells; [1]): 5.3 ± 1.1 µM
- IC50 (A549 NSCLC cells; [1]): 6.8 ± 1.3 µM
- LC99 (A549 NSCLC cells; [1]): 14.9 ± 3.8 µM
- TGI (A549 NSCLC cells; [1]): 8.5 ± 1.5 µM and 8.5 µM
- LC99, drug in combination (CMB) (A549 NSCLC cells; amount of each drug in combination, ratio 50% 4SP65:50% DDP, 48 h): 8 µM
- Dose reduction value 1LP65 ÷ 4SP65 (A549 NSCLC cells; at GI50): 9.9 fold
- Dose reduction value AMF ÷ 4SP65 (A549 NSCLC cells; at GI50): 43 fold
- Dose reduction value 1LP65 ÷ 4SP65 (A549 NSCLC cells; at IC50): 9.8 fold
- Dose reduction value AMF ÷ 4SP65 (A549 NSCLC cells; at IC50): 37 fold
- Dose reduction value 1LP65 ÷ 4SP65 (A549 NSCLC cells; at LC50): 13 fold
- Dose reduction value 1LP65 ÷ 4SP65 (A549 NSCLC cells; at LC99): 13 fold
- Dose reduction value 1LP65 ÷ 4SP65 (A549 NSCLC cells; at TGI): 15 fold
- Fold increase in efficacy (A549 NSCLC cells; drug alone ÷ drug in 4SP65-DDP combination, at GI50): 2.4* fold
- Fold increase in efficacy (A549 NSCLC cells; drug alone ÷ drug in 4SP65-DDP combination, at IC50): 2.2* fold
- Fold increase in efficacy (A549 NSCLC cells; drug alone ÷ drug in 4SP65-DDP combination, at LC50): 1.9* fold
- Fold increase in efficacy (A549 NSCLC cells; drug alone ÷ drug in 4SP65-DDP combination, at LC99): 1.9* fold
- Fold increase in efficacy (A549 NSCLC cells; drug alone ÷ drug in 4SP65-DDP combination, at TGI): 1.9* fold
- Fold increase in efficacy (A549 NSCLC cells; drug alone ÷ drug in 4SP65-GEF combination, at GI50): 1.5** fold
- Fold increase in efficacy (A549 NSCLC cells; drug alone ÷ drug in 4SP65-GEF combination, at IC50): 1.4** fold
- Fold increase in efficacy (A549 NSCLC cells; drug alone ÷ drug in 4SP65-GEF combination, at LC50, GoE = gain of effect): 1.1 (NS) fold
- Fold increase in efficacy (A549 NSCLC cells; drug alone ÷ drug in 4SP65-GEF combination, at LC99, GoE = gain of effect): 1.0 (NS) fold
- Fold increase in efficacy (A549 NSCLC cells; drug alone ÷ drug in 4SP65-GEF combination, at TGI, GoE = gain of effect): 1.5** fold
- GI50 (A549 NSCLC cells; [2]): 5.4 ± 2.5 µM
- IC50 (A549 NSCLC cells; [2]): 6.8 ± 1.3 µM
- LC99 (A549 NSCLC cells; [2]): 14.9 ± 3.8 µM
- TGI (A549 NSCLC cells; [2]): 8.3 ± 1.5 µM
- GI50 (A549 NSCLC cells; [4]): 6 ± 0.6 µM
- IC50 (A549 NSCLC cells; [4]): 7.4 ± 0.7 µM
- LC99 (A549 NSCLC cells; [5]): 12.3 ± 3.8 µM
- TGI (A549 NSCLC cells; [5]): 11.3 ± 1.5 µM
- CC50 (Prostate LNCaP cells): 7.3 ± 1.8 µM
- GI50 (Prostate LNCaP cells; [1]): 2.5 ± 1 µM
- IC50 (Prostate LNCaP cells; [1]): 3.1 ± 1.5 µM
- LC99 (Prostate LNCaP cells; [1]): 10.1 ± 1.0 µM
- TGI (Prostate LNCaP cells; [1]): 4.7 ± 1.5 µM
